Calls of active or inactive are those of the source.
How the values were obtained:
[1] = target: T1, Delta-type opioid receptor (Homo sapiens, UniProt P41143); experiment: HTS Image-Based Screen for Agonists of the DOR Receptor. [Related pubchem assays (depositor defined):AID1777, AID1786, AID2133]; type: functional
Mu-type opioid receptor [2] = target: T2, Mu-type opioid receptor (Homo sapiens, UniProt P35372); experiment: mu opioid receptor blockers – image-based, SAR follow-up (AID 2420); type: functional;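 also: compounds added before stimulation of receptor with agonist DAMGO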
T2 sequence (P35372 whole entry): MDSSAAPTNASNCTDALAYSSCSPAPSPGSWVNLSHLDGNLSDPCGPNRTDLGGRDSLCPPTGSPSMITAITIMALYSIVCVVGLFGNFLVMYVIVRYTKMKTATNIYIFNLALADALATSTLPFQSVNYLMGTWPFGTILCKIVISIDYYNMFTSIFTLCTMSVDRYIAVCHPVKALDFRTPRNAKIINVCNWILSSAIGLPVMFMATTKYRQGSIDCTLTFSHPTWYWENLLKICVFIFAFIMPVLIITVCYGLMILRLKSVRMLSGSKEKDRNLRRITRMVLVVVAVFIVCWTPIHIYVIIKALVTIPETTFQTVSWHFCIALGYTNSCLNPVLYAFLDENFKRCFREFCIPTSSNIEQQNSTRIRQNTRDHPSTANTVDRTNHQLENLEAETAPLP

[3] = target: T3, Kappa-type opioid receptor (Homo sapiens, UniProt P41145); type: functional
T3 sequence (P41145 whole entry): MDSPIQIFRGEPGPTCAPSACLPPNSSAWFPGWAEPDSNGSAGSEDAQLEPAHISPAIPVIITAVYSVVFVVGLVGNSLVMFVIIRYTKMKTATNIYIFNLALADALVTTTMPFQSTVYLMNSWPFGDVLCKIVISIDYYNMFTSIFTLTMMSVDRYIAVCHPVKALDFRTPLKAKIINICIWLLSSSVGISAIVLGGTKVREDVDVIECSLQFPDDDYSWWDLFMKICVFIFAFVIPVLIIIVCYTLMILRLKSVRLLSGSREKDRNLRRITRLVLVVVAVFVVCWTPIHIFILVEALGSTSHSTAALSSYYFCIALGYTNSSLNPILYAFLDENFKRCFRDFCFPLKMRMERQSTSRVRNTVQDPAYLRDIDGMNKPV

Mu-type opioid receptor [4] = target: T2, Mu-type opioid receptor; experiment: HTS Image-Based Screen for Agonists of the MOR Receptor. [Related pubchem assays (depositor defined):AID1777, AID1785, AID1786, AID2133]; type: functional
[5] = viability of uninfected HEp-2 cells – cell-based, HTS, cytotoxicity control for RSV inhibitor project, dose response (AID 2410); type: functional; conditions: human respiratory syncytial virus
Mu-type opioid receptor [6] = target: T2, Mu-type opioid receptor; experiment: mu opioid receptor activators, image-based, SAR follow-up (AID 2352); type: functional
[7] = target: T1, Delta-type opioid receptor; experiment: DOR agonists, SAR follow-up, image-based (AID 2370); type: functional
[8] = target: T3, Kappa-type opioid receptor; experiment: kappa opioid receptor blockers, image-based, SAR follow-up (AID 2348); type: functional
[9] = target: T3, Kappa-type opioid receptor; type: functional; remark: listed apart in the source
[10] = target: T1, Delta-type opioid receptor; experiment: HTS Image-Based Screen for Antagonists of the DOR Receptor. [Related pubchem assays (depositor defined):AID1777, AID1785, AID1786, AID2133]; type: functional
[11] = target: T1, Delta-type opioid receptor; experiment: delta opioid receptor blockers – image-based, SAR follow-up (AID 2357); type: functional
[12] = target: NACHT, LRR and PYD domains-containing protein 3 (Homo sapiens, UniProt Q96P20); experiment: NALP3 inhibitors in yeast, dose response, luminescent (AID 488799); type: functional
Mucolipin-3 = Mucolipin-3 (Homo sapiens, UniProt Q8TDD5); experiment: Dose response cell-based high-throughput screening assay for agonists of the transient receptor potential channel ML3 (TRPML3). [Related pubchem assays: 1526, 1424, 1448 ]; type: functional
Mucolipin-3, sequence (Q8TDD5 whole entry): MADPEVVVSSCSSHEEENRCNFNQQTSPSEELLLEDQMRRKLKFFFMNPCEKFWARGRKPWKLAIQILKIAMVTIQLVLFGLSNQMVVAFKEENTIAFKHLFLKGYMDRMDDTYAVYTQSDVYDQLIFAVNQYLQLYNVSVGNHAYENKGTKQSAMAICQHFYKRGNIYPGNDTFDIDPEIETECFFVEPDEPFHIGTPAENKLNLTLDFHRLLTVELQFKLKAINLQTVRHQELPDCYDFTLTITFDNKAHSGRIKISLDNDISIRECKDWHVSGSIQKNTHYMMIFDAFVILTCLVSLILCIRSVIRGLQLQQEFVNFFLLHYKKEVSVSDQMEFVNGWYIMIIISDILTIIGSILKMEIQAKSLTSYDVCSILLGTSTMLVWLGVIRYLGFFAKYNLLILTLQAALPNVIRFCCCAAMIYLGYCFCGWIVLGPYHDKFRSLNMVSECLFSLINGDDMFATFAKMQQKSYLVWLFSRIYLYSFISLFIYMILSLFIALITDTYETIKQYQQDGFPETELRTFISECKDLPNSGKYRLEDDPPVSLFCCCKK

Ion channel NompC = Ion channel NompC (Danio rerio, UniProt Q7T1G6); experiment: Fluorescence counterscreen assay for TRPML3 agonists: dose response cell-based high-throughput screening assay to identify agonists of the transient receptor potential channel N1 (TRPN1). [Related pubchem assays: 1526, 1424, 1448 ]; type: functional
[13] = target: ATP-dependent molecular chaperone HSP82 (Candida albicans (strain WO-1) (Yeast), UniProt C4YTQ8); experiment: steroid-induced GRE reporter decrease in yeast – S. cerevisiae, luminescence, Hsp90 inhibitor project, dose response (AID 2400); type: functional, cell-based;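 also: beta-galactosidase luminescence from glucocorticoid response element reporter as proxy for Hsp90 function; inhibitor potency where signal loss means Hsp90 inhibition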
[14] = NIH-3T3 fibroblast cytotoxicity, dose response, cytotoxicity control, cell-based, fluorescence, Alamar Blue, secondary assay (AID 2327); type: functional;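 also: NIH-3T3 mouse fibroblasts cultured with fluconazole at 8 µg/mL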
[15] = fluconazole-exposed Candida albicans growth modulators – fluorescence, retest, confirmation (AID 2467); type: functional, cell-based
[16] = target: T4, Serine/threonine-protein phosphatase (Candida dubliniensis (strain CD36 / CBS 7987 / NCPF 3949 / NRRLY-17841) (Yeast), UniProt B9W6M3); experiment: blockers of CaCl2-induced CDRE-lacZ signaling – S. cerevisiae, luminescence, secondary, dose response (AID 2388); type: functional, cell-based;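 also: yeast reporter cells carrying a calcineurin-responsive lacZ construct stimulated with calcium chloride; luminescent beta-galactosidase reporter signal in whole cells rather than isolated phosphatase activity; potency for inhibition where a drop in reporter signal means calcineurin blockade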
T4 sequence (B9W6M3 whole entry): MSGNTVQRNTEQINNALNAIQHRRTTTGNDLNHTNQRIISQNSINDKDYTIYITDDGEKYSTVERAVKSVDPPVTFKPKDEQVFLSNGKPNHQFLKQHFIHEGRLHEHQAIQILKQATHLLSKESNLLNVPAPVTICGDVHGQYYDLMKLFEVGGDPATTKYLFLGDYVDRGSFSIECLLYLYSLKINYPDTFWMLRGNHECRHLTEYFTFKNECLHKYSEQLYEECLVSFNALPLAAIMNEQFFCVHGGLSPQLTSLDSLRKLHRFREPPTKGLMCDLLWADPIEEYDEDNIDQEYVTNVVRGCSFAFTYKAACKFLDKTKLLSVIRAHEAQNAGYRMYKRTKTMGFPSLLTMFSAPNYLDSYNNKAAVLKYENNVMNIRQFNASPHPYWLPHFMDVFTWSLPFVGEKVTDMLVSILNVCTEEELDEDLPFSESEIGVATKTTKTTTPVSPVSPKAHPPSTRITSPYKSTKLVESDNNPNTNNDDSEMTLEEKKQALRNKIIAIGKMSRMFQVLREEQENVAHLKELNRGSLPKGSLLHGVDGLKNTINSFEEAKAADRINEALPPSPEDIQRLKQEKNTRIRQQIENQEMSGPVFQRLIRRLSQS

[17] = target: Envelope glycoprotein gp160 (Human immunodeficiency virus 1, UniProt Q6QLK5); experiment: cell-free HIV fusion peptide-binding blockers – biochemical, uHTS, fluorescence dequenching, […] (AID 1986)
[18] = target: T5, Polyadenylate-binding protein 1 (Homo sapiens, UniProt P11940); experiment: MLLE domain peptide-binding blockers, IC50 – biochemical, fluorescence polarization, FITC-PAM2 peptide, dose response (AID 602259); type: functional; conditions: read-out: IC50_Mean
T5 sequence (P11940 whole entry, the tested form may be a part): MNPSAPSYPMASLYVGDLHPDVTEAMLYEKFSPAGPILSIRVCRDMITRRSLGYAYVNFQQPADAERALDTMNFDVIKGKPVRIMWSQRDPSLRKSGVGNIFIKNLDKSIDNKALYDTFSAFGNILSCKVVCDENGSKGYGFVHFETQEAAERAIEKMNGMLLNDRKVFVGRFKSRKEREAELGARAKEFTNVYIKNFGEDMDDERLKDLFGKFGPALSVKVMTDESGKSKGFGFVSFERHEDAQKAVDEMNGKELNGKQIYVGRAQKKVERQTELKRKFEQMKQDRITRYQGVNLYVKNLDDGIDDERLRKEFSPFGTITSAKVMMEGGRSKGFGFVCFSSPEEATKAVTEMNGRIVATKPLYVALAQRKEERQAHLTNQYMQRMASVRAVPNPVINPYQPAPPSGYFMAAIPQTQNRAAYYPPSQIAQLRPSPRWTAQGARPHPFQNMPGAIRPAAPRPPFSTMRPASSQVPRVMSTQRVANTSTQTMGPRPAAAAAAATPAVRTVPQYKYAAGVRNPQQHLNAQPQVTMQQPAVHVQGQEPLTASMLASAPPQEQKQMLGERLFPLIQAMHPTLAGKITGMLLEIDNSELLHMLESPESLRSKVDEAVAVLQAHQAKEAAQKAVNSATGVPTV

Protein Rev = Protein Rev (Human immunodeficiency virus type 1 group M subtype B (isolate HXB2)(HIV-1), UniProt P04618); experiment: blockers of HIV Rev/RRE RNA complex – biochemical, fluorescence polarization, HIV-1, dose response (AID 434976); parameters: species or system Human immunodeficiency virus 1
Protein Rev, sequence (P04618 whole entry): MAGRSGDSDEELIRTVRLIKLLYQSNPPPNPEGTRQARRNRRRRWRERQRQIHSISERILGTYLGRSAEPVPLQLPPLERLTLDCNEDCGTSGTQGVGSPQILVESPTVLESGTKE

[19] = target: Female germline-specific tumor suppressor gld-1 (Caenorhabditis elegans, UniProt Q17339); experiment: blockers of GLD-1/TGE RNA complex formation – biochemical, fluorescence polarization, C. elegans, dose response (AID 2802);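 also: fluorescence polarization of labeled TGE RNA bound by purified gld-1 protein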
Female germline-specific tumor suppressor gld-1, sequence (Q17339 whole entry): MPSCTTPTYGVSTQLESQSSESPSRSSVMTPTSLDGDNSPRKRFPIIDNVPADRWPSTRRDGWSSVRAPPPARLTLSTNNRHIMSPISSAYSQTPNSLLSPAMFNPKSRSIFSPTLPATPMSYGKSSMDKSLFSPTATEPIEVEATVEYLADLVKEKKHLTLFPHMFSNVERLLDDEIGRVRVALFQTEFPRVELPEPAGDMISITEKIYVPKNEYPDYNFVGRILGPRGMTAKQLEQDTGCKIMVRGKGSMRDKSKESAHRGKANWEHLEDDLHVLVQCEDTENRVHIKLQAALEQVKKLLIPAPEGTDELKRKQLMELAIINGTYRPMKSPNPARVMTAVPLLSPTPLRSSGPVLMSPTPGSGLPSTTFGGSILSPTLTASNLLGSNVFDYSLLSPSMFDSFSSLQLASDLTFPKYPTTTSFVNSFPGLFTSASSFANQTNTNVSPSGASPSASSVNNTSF

[20] = target: T5, Polyadenylate-binding protein 1; experiment: MLLE binding blockers, Cy5 peptide tracer – biochemical, fluorescence polarization, Cy5-PAM2 peptide, secondary, miRNA deadenylation inhibitor project, dose response (AID 602260); type: functional; conditions: read-out: IC50_Mean
[21] = THP-1 cell cytotoxicity, dose response, cytotoxicity control for non-replicating M. tuberculosis project (AID 489025); type: functional
Beta-galactosidase = Beta-galactosidase (Escherichia coli, UniProt Q8VNN2); experiment: detection-enzyme interference by beta-gal modulators – biochemical, E. coli enzyme, set 3, artefact control for CCR6 antagonist project, dose response (AID 504712); type: functional
Beta-galactosidase, sequence (Q8VNN2 whole entry): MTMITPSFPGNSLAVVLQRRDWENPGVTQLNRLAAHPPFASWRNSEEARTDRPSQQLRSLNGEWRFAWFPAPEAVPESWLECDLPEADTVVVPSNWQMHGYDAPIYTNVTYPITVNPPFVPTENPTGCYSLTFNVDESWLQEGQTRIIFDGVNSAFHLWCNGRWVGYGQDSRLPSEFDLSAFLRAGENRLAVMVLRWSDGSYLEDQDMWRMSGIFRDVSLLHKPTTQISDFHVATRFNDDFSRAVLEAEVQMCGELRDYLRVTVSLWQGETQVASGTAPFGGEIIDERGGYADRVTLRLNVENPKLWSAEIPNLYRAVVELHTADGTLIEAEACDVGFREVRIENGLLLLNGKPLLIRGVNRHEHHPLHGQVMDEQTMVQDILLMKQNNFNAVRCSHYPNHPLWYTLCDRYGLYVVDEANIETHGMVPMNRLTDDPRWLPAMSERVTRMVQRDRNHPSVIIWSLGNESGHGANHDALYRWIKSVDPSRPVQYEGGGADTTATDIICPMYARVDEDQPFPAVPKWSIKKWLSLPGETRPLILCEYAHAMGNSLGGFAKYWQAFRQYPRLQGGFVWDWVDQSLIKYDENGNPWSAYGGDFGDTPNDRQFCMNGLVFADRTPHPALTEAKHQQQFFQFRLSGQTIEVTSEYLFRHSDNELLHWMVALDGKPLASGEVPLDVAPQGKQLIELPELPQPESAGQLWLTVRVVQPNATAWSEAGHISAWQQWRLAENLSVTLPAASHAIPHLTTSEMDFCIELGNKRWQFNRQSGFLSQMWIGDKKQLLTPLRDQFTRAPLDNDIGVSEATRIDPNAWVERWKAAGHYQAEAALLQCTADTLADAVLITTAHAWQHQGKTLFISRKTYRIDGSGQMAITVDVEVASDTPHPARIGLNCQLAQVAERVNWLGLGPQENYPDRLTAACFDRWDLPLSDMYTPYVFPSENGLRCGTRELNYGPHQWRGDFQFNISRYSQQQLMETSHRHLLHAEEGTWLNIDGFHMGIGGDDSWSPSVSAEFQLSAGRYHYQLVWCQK

[22] = viability loss in THP-1 monocytes – THP-1 cells, cytotoxicity control for Vif-APOBEC3G degradation inhibitor project, dose response (AID 1117359); type: functional; conditions: THP-1
[23] = target: Glucose-6-phosphate 1-dehydrogenase (Homo sapiens, UniProt P11413); experiment: inhibition of Homo sapiens G6PD, dose series – biochemical, fluorescence, selectivity assay for P. falciparum G6PD inhibitor project, dose response (AID 504792); type: functional
Glucose-6-phosphate 1-dehydrogenase, sequence (P11413 whole entry): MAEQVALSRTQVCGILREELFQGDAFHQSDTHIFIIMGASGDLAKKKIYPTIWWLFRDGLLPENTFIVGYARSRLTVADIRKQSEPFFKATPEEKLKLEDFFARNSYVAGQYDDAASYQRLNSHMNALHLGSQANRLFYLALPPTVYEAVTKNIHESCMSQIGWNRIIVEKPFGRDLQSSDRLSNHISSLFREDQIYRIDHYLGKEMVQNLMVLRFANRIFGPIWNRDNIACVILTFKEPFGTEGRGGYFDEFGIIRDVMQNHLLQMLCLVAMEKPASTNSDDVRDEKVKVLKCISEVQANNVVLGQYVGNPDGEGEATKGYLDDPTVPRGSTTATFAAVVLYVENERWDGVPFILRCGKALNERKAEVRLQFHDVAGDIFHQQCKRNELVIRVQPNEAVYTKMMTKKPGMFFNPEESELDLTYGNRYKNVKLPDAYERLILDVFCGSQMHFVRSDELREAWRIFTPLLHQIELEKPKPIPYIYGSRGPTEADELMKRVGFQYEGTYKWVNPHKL

Hexokinase HKDC1 = target: T6, Hexokinase HKDC1 (Homo sapiens, UniProt Q2TB90); experiment: inhibition of HKDC1 glucose phosphorylation – biochemical, W721R variant, dose response (AID 504729); type: functional
T6 sequence (Q2TB90 whole entry): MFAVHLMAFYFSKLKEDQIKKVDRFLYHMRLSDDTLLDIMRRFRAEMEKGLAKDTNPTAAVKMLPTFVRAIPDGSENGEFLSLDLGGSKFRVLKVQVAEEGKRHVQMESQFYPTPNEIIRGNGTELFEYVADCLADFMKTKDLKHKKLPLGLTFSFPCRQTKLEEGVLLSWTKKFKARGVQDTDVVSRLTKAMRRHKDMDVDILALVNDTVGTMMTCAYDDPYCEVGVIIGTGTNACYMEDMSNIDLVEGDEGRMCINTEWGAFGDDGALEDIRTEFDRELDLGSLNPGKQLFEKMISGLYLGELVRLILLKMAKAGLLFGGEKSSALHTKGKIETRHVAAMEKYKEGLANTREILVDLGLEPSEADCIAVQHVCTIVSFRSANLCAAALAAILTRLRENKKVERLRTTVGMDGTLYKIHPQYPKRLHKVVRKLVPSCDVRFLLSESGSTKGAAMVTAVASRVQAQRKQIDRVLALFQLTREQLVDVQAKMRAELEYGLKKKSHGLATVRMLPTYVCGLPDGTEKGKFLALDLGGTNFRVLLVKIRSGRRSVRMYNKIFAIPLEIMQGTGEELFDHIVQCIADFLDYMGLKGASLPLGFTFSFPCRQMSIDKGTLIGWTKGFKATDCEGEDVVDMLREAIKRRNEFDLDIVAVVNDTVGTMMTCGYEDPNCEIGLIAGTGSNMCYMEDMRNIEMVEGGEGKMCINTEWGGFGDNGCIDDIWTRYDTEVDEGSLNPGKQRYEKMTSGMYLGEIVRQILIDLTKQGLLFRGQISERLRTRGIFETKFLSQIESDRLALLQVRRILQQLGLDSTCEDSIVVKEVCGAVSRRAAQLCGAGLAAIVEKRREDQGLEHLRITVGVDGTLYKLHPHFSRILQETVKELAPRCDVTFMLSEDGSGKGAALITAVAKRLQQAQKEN

[24] = target: Induced myeloid leukemia cell differentiation protein Mcl-1 (Homo sapiens, UniProt Q07820); type: functional
[25] = HGIII-sPLA2 enzyme inhibition potency – biochemical, QFRET, IC50, dose response (AID 743457);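 also: green fluorescence rise as the enzyme cleaves BODIPY PC-A2 in liposomes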
[26] = target: C-C chemokine receptor type 6 (Homo sapiens, UniProt P51684); experiment: antagonism of CCR6 beta-arrestin recruitment – cell-based, luminescent beta-arrestin readout, dose response (AID 504728); type: functional
C-C chemokine receptor type 6, sequence (P51684 whole entry): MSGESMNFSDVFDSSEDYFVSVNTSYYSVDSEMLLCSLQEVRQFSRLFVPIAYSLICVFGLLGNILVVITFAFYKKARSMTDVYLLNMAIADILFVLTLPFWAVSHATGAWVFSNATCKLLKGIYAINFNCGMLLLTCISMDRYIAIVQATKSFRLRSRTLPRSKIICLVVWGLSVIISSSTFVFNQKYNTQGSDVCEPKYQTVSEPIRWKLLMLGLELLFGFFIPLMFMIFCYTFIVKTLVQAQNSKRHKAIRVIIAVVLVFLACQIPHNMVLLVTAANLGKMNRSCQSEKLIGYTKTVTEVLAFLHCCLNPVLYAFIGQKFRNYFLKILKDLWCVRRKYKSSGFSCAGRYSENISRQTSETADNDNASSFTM

[27] = target: Eukaryotic translation initiation factor 4E (Mus musculus, UniProt P63073); experiment: blockers of eIF4G binding by eIF4E – biochemical, TR-FRET, dose response (AID 855); type: functional;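 also: potency for disrupting eIF4E binding to eIF4GI seen as loss of FRET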
[28] = target: Tyrosine-protein phosphatase non-receptor type 12 (Homo sapiens, UniProt Q05209); experiment: SAR Selectivity Analysis of small molecule inhibitors of PEST using pCAP in a fluorescence assay. [Related pubchem assays (depositor defined):AID1779, AID1784, AID2135]; type: functional
[29] = target: T7, Tyrosine-protein phosphatase non-receptor type 22 (Homo sapiens, UniProt Q9Y2R2); experiment: SAR LYP1 Fluorescent Assay using pCAP substrate for In Vitro dose response studies - Set 4. [Related pubchem assays (depositor defined):AID1779, AID1784]; type: functional
T7 sequence (Q9Y2R2 whole entry): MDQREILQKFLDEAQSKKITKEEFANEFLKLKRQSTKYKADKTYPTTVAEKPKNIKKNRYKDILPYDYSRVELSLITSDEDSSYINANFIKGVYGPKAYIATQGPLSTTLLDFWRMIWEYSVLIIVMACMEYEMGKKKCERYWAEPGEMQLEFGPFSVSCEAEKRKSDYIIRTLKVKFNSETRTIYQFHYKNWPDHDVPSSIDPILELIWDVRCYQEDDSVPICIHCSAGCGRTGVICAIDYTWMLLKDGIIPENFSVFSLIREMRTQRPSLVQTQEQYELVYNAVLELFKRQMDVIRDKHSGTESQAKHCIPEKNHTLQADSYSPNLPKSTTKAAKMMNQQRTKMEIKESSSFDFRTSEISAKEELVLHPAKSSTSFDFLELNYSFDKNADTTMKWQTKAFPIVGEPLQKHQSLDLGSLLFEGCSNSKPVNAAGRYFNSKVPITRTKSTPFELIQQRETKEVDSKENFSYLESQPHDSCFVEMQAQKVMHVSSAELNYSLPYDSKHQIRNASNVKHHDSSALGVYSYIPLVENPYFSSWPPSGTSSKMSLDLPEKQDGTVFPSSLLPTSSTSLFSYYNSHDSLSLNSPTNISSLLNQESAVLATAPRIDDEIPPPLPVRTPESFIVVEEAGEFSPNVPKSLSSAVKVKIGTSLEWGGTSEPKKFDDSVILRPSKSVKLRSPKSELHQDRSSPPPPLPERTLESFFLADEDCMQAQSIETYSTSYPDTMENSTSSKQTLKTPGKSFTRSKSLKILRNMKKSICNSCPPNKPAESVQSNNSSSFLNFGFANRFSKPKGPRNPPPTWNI

[30] = target: T7, Tyrosine-protein phosphatase non-receptor type 22; experiment: SAR LYP1 Fluorescent Assay using OMFP substrate for In Vitro dose response studies - Set 4. [Related pubchem assays (depositor defined):AID1779, AID1784, AID2140, AID2686]; type: functional

T1 sequence (P41143 whole entry): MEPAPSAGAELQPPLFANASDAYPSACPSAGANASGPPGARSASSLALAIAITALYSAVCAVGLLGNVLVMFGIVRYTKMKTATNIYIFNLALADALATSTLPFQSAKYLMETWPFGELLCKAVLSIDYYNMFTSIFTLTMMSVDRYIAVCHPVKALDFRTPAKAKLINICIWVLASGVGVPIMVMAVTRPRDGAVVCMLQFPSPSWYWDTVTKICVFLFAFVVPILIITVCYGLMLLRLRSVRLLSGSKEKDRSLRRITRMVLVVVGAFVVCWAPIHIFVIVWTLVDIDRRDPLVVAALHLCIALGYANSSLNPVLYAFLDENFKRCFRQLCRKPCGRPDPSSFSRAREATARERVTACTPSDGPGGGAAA

SMILES: Clc1cccc(CSc2nnc(-c3ccccn3)n2Cc2ccco2)c1
- EC50 [1]: > 32 µM (inactive)
- IC50 (Mu-type opioid receptor [2]): > 32 µM (inactive)
- EC50 [3]: 8.35 µM
- EC50 (Mu-type opioid receptor [4]): > 32 µM (inactive)
- CC50 [5]: 15.1 µM (active)
- EC50 (Mu-type opioid receptor [6]): > 32 µM (inactive)
- EC50 [7]: > 32 µM (inactive)
- IC50 [8]: > 32 µM (inactive)
- EC50 [9]: 5.6 µM
- IC50 [10]: > 32 µM (inactive)
- IC50 [11]: > 32 µM (inactive)

SMILES: CN(CCOc1ccccc1)c1ccc(S(=O)(=O)N2CCCCC2)cn1
- IC50 [12]: > 100 µM (inactive)
- EC50 (Mucolipin-3): 2.58 µM (active)
- EC50 (Ion channel NompC): > 29.9 µM (not active)

SMILES: CC(C)CCN1C(=O)c2ccc(C(=O)Nc3ccc(Br)cc3C(=O)O)cc2C1=O
- EC50 [13]: 15.6 µM (active)
- EC50 [14]: > 160 µM (inactive)
- EC50 [15]: 2.46 µM (active)
- EC50 [16]: > 180 µM (inactive)
- IC50 [17]: > 99 µM (inactive)

SMILES: Cc1ccc2c3c(cccc13)-c1ccccc1C2=O
- IC50 [18]: 51.1 µM (inactive)
- IC50 (Protein Rev): 10.1 µM (not active)
- IC50 [19]: 2.67 µM (active)
- IC50 [20]: 38.3 µM (inactive)

SMILES: CNCc1ccccc1Sc1cc(O)ccc1O
- CC50 [21]: 38.8 µM (active)
- IC50 (Beta-galactosidase): > 66.6 µM (inactive)
- CC50 [22]: > 40 µM (active)
- IC50 [23]: 26.9 µM (inactive)
- IC50 (Hexokinase HKDC1): 3.35 µM (active)
- IC50 [18]: > 66 µM (inactive)
- IC50 [24]: 4.5 µM (active)
- IC50 [25]: > 122 µM (inactive)
- IC50 [26]: 23.5 µM (inactive)
- IC50 [20]: > 66 µM (inactive)
- IC50 [27]: > 64 µM (inactive)

SMILES: CCOC(=O)COc1ccc(/C=N/NC(=O)c2ccc(-c3csc(Nc4ccc(Cl)cc4)n3)cc2)cc1
- IC50 [28]: 37.4 µM (active)
- IC50 [29]: 60.8 µM (active)
- IC50 [30]: 89 µM (active)
